# According to patent EP1641803B1, “THIENOPYRIMIDINE DERIVATIVES AS POTASSIUM CHANNEL INHIBITORS” (Xention Limited, priority 2003, dated 2004):
# Assays:
# hKv1.5 = hKv1.5 (Homo sapiens, UniProt P22460); experiment: Kv1.5 Autopatch Electrophysiology (whole cell patch-clamp); format: cell-based; conditions: compound at 1µM, room temperature (22-24°C), held at -80mV, step to 0mV for 1000ms, total charge measured
# Experimental: The external bathing solution contained (in mM): 150 NaCl, 10 KCl, […], 3 MgCl2, 1 CaCl2, 10 HEPES, pH 7.4. Patch pipettes were filled with an electrode solution of composition (in mM): 160 KCl, 0.5 MgCl2, 10 HEPES, 1 EGTA, pH 7.4 with KOH.
# Compounds were dissolved in DMSO (100 %) and made up in the external bather at a concentration of 1µM. All experiments were conducted at room temperature (22-24°C).
# A cell suspension (10 ml), with a density of 100,000 cells/ml, was aliquoted into a 15ml centrifuge tube and transferred to an incubator (37°C, 5% CO2) for approximately one hour before use. Following 60 min incubation, a tube was taken and centrifuged at 1000 rpm for 4 mins at room temperature. 9.5 ml supernatant was thence discarded, leaving a cell pellet at the bottom of the tube. The pellet was then resuspended using 100 µl of cold (4 °C), filtered (0.22 µm), 0.2 % BSA/bather solution (0.02g BSA/10ml bather). The bottom of the tube was manually agitated gently until the solution became cloudy with cells. The 100 µl cell resuspension solution was then stored on the bench at 4 °C (using a Peltier-based temperature control device) until used.
# A length of capillary glass (1B150F-4, WPI) was dipped into the cell suspension solution, such that - 3 cm column of fluid was taken up by capillary action. A Ag/AgCl wire was dropped into the non-dipped end of the capillary also. The outside of the solution-filled end of the capillary was then dried and the capillary was loaded into the AutoPatch™. Borosilicate glass patch pipettes (from 1.5mm OD, thin-walled filamented, GC150-TF capillary glass, Harvard) were pulled using a DMZ pipette puller (Zeitz Instruments), and were back-filled using the internal pipette solution, being careful that no bubbles remain at the tip or in the body of the pipette. Patch pipettes typically had resistances of 2.3-3.5 MΩ. Once filled, the pipette tip and a proportion of the shaft (- 15 mm) were dipped into Sigmacote (Sigma). The recording pipette was then loaded into the AutoPatch™.
# Automated patch-clamping was initiated by the operator, but thereafter AutoPatch.exe continued the experiment providing that pre-set conditions and criteria were satisfied.
# Whole cell patch-clamp recordings were made using the AutoPatch™ rig, which incorporated an EPC9 amplifier (HEKA, Germany) under control of Pulse software (v8.54, HEKA, Germany), a motion controller with 2 translators (Newport, UK), valve controller (VF1) and a c-level suction device all at room temperature (22-24°C). This equipment was completely under the control of AutoPatch.exe and operator intervention was only made when there was a requirement to refill the drug reservoirs or to prevent the loss of a cell due to a technical error. Cells with an Rseries greater than 18 MΩ were discounted from the experiment.
# Qualification stages prior to perfusion and drug application ensured that the observed current met the criteria for the experiment. Only those cells with an IK > 500 pA were used for experiments. Cells were continuously perfused with external solution at a flow rate of 1.8-2 ml/minute. […] Online analysis of the hKv1.5 current during the application of compounds was performed by the AutoPatch™ software. Voltage-step protocols and analysis of data was performed as described for conventional electrophysiology.
# Electrophysiology voltage-step protocols and analysis of data was performed as follows. Data was sampled at 5kHz, and filtered with a -3 dB bandwidth of 2.5kHz. Cells were held at a voltage of -80mV. Currents were evoked to a voltage step for 1000ms in duration at 0mV every 5s. Currents were analysed using Pulsefit software (v8.54, HEKA, Germany), with the total charge measured during the whole of the voltage step. All other plots were produced using Igor Pro (WaveMetrics).
# human Kv1.5 = molecular target: T1, human Kv1.5 (Homo sapiens, UniProt P22460); experiment: Kv1.5 Rb+ Efflux Assay; format: cell-based; conditions: inhibition of 86Rb+ efflux through Kv1.5; cells stably transfected with human Kv1.5; 10 point concentration response curves n=2; normalised to 2.5mM 4 amino-pyridine block
# T1 construct: expressed in transfected cells
# T1 sequence (P22460 whole entry): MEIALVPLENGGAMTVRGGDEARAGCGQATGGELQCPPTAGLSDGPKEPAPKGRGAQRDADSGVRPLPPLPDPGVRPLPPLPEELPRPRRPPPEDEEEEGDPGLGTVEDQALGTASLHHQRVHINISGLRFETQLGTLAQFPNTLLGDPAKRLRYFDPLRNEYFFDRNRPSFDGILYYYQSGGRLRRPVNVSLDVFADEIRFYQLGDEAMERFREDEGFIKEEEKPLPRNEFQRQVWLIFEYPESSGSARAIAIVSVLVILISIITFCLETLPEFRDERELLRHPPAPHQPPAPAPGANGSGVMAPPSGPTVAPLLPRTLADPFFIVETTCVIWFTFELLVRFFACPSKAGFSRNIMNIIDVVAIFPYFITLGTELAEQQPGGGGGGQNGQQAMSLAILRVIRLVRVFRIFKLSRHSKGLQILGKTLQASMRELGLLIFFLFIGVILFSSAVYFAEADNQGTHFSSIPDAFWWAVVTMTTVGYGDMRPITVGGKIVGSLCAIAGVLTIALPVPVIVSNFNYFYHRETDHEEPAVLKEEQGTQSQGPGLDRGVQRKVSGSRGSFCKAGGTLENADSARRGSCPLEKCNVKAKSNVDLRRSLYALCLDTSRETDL
# Experimental: The pore of a potassium channel is permeable to other monovalent cations such as Rb^+ and Tl^+. Analysis of cellular efflux of potassium channel permeable ions enables potassium channel activity to be monitored directly. Cells stably transfected with cDNA for human Kv1.5 (in pEF6::VA-His-TOPO) were grown in Dulbecco's Modified Eagle media (DMEM) alpha supplemented with 10% Fetal Calf Serum (FCS), 20 µl/ml penicillin (5000U/ml) streptomycin (5000µg/ml), 10µl/ml [100x] glutamine, and blasticidin (7.5µg/ml). Cells were dispensed into 96 well cellstar TC plates and allowed to grow until a confluent monolayer was visible. On the morning of the assay run, cold media was aspirated using the TECAN plate washer, and a 50µl media spike containing 2µCi/ml (37kBq/ml) ^86Rb^+ added to each well containing cells using the Shallow-Well Matrix Platemate. Plates were placed in a incubator at 37°C for a minimum of 3 hours. Unloaded ^86Rb^+ in the "hot" media was aspirated and each well washed 4x250µl with Earls Balanced Salt Solution (EBSS) which contained 5mM KCl, 140mM NaCl, 2mM CaCl2, 1mM MgSO4, 10mM HEPES, and 5mM glucose, pH 7.4, 290-300 mOsm. These cells were then pre-incubated with 50µl of EBSS +/- test compounds for 10 minutes at room temperature. After the 10 minute incubation, 50µl of modified EBSS which contained 145mM KCl, 2mM CaCl2, 1mM MgSO4, 10mM HEPES, 5mM glucose, pH 7.4, 290-300 mOsm, was added, and the cells were incubated for a further 10 minutes at room temperature. The high KCl EBSS was used to depolarise cells to a membrane potential that would activate Kv1.5 channels. After the final incubation 80µl/100µl of the reaction from each well was transferred to equivalent wells in a Packard "Optiplate" white 96 well plate and counted in a Packard TopCount liquid scintillation counter by Cerenkov emission. Percentage inhibition ^86Rb^+ efflux through Kv1.5 was calculated by normalisation to 2.5mM 4 amino-pyridine control block of Kv1.5. Alternatively cells were loaded with ^85Rb^+ and quantified by atomic absorption spectroscopy. IC50 determinations were derived from 10 point concentration response curves n=2 using the method described above. Data was fitted as variable slope sigmoidal fit using Graphpad Prism (V3.02) software.
# Chain of hKv1.5 (P22460 whole entry): as above
inhibition at 1 µM (hKv1.5) [%],IC50 (human Kv1.5) [µM],% Inhibition at 1µM (hKv1.5) [%],Compound
21.9,0.07,,"c1ccc(-c2csc3ncnc(NCc4ccco4)c23)cc1 [Example 83, Furan-2-ylmethyl-(5-phenyl-thieno[2,3-d]pyrimidin-4-yl)-amine]"
15.3,0.8,,"c1ccc(-c2csc3ncnc(NCC4CC4)c23)cc1 [Example 84, Cyclopropylmethyl-(5-phenyl-thieno[2,3-d]pyrimidin-4-yl)-amine]"
24.2,4.21,,"c1ccc(-c2csc3ncnc(NCc4cccs4)c23)cc1 [Example 85, (5-Phenyl-thieno[2,3-d]pyrimidin-4-yl)-thiophen-2-ylmethyl-amine]"
46,4.36,,"c1ccc(CNc2ncnc3scc(-c4ccccc4)c23)cc1 [Example 86, Benzyl-(5-phenyl-thieno[2,3-d]pyrimidin-4-yl)-amine]"
3.4,5.14,,"C=CCNc1ncnc2scc(-c3ccccc3)c12 [Example 87, Allyl-(5-phenyl-thieno[2,3-d]pyrimidin-4-yl)-amine]"
26.4,6.82,,"CN(Cc1ccco1)c1ncnc2scc(-c3ccccc3)c12 [Example 88, Furan-2-ylmethyl-methyl-(5-phenyl-thieno[2,3-d]pyrimidin-4-yl)-amine]"
,8.1,42.2,"c1ccc(-c2csc3ncnc(NCC4CCCCC4)c23)cc1 [Example 89, Cyclohexylmethyl-(5-phenyl-thieno[2,3-d]pyrimidin-4-yl)-amine]"
,10.1,,"c1ccc(CCNc2ncnc3scc(-c4ccccc4)c23)cc1 [Example 90, Phenethyl-(5-phenyl-thieno[2,3-d]pyrimidin-4-yl)-amine]"
,> 30,,"c1ccc(-c2csc3ncnc(NC4CCCCC4)c23)cc1 [Example 91, Cyclohexyl-(5-phenyl-thieno[2,3-d]pyrimidin-4-yl)-amine]"
27.6,1.91,,"c1coc(CNc2ncnc3scc(-c4cccs4)c23)c1 [Example 92, Furan-2-ylmethyl-(5-thiophen-2-yl-thieno[2,3-d]pyrimidin-4-yl)-amine]"
44,> 30,,"O=[N+]([O-])c1ccc(CNc2ncnc3scc(-c4cccs4)c23)cc1 [Example 93, (4-Nitro-benzyl)-(5-thiophen-2-yl-thieno[2,3-d]pyrimidin-4-yl)-amine]"
19.4,> 30,,"COc1cc(CNc2ncnc3scc(-c4cccs4)c23)cc(OC)c1OC [Example 94, (5-Thiophen-2-yl-thieno[2,3-d]pyrimidin-4-yl)-(3,4,5-trimethoxy-benzyl)-amine]"
32.6,4.51,,"c1csc(-c2csc3ncnc(NCC4CC4)c23)c1 [Example 95, Cyclopropylmethyl-(5-thiophen-2-yl-thieno[2,3-d]pyrimidin-4-yl)-amine]"
22.9,6.32,,"CC(C)CNc1ncnc2scc(-c3cccs3)c12 [Example 96, Isobutyl-(5-thiophen-2-yl-thieno[2,3-d]pyrimidin-4-yl)-amine]"
43.3,6.53,,"c1ccc(CNc2ncnc3scc(-c4cccs4)c23)cc1 [Example 97, Benzyl-(5-thiophen-2-yl-thieno[2,3-d]pyrimidin-4-yl)-amine]"
,6.95,21.0,"c1csc(CNc2ncnc3scc(-c4cccs4)c23)c1 [Example 98, Thiophen-2-ylmethyl-(5-thiophen-2-yl-thieno[2,3-d]pyrimidin-4-yl)-amine]"
17.5,7.53,,"C=CCNc1ncnc2scc(-c3cccs3)c12 [Example 99, Allyl-(5-thiophen-2-yl-thieno[2,3-d]pyrimidin-4-yl)-amine]"
19.9,9.71,,"CN(Cc1ccco1)c1ncnc2scc(-c3cccs3)c12 [Example 100, Furan-2-ylmethyl-methyl-(5-thiophen-2-yl-thieno[2,3-d]pyrimidin-4-yl)-amine]"
,> 30,,"CCN1CCCC1CNc1ncnc2scc(-c3ccccc3)c12 (stereo not shown) [Example 102, (1-Ethyl-pyrrolidin-2-ylmethyl)-(5-phenyl-thieno[2,3-d]pyrimidin-4-yl)-amine]"
,> 30,,"c1ccc(-c2csc3ncnc(NCCCn4ccnc4)c23)cc1 [Example 104, (3-Imidazol-1-yl-propyl)-(5-phenyl-thieno[2,3-d]pyrimidin-4-yl)-amine]"
,5.27,,"COCCNc1ncnc2scc(-c3ccccc3)c12 [Example 113, (2-Methoxy-ethyl)-(5-phenyl-thieno[2,3-d]pyrimidin-4-yl)-amine]"
,5.18,,"c1ccc(-c2csc3ncnc(NCC4CCCO4)c23)cc1 (stereo not shown) [Example 114, (5-Phenyl-thieno[2,3-d]pyrimidin-4-yl)-(tetrahydro-furan-2-ylmethyl)-amine]"
,6.16,,"c1ccc(-c2csc3ncnc(NCC4OCCO4)c23)cc1 [Example 116, [1,3]Dioxolan-2-ylmethyl-(5-phenyl-thieno[2,3-d]pyrimidin-4-yl)-amine]"
,0.05,,"Fc1ccc(-c2csc3ncnc(NCc4ccccn4)c23)cc1 [Example 123, [5-(4-Fluoro-phenyl)-thieno[2,3-d]pyrimidin-4-yl]-pyridin-2-ylmethyl-amine]"
,1.16,,"Fc1ccc(-c2csc3ncnc(NCc4ccco4)c23)cc1 [Example 124, [5-(4-Fluoro-phenyl)-thieno[2,3-d]pyrimidin-4-yl]-furan-2-ylmethyl-amine]"
,6.91,,"Cc1csc2ncnc(NCCc3ccc(Cl)cc3)c12 [Example 125, [2-(4-Chloro-phenyl)-ethyl]-(5-methyl-thieno[2,3-d]pyrimidin-4-yl)-amine]"
,8.05,,"Cc1ccc(-c2csc3ncnc(NCCc4ccccc4)c23)cc1 [Example 130, Phenethyl-(5-p-tolyl-thieno[2,3-d]pyrimidin-4-yl)-amine]"
